Laboratory results from patent US4485088A, “Method of treatment of fibrotic lesions by topical administration of lathyrogenic drugs” (Bio-Products, Inc., priority 1982, dated 1984).
Entries after “also recorded” stand apart in the source; their conditions may differ. Structures can show the parent of a compound that is named as a salt. Where two headings read alike, the source gives them in different places.

Tests used:
[1] = Skin penetration of BAPN base versus BAPN fumarate; type: in vitro ADME; conditions: BAPN base vs BAPN fumarate
[2] = Storage stability of BAPN base; type: physicochemical
[3] = Topical cytotoxicity of BAPN; type: in vivo
Excerpt: Although the pathogenesis of the above disorders may differ, in every one it was postulated that the physical properties of the scar tissue were affected by abnormal cross-linking of the collagenous component. A variety of methods was proposed and used to alleviate the problems of abnormal reactivity of polymerized scar tissue (Peacock and Van Winkle 1976). […] The ideal method of topical administration would be the noninvasive percutaneous resorption of BAPN painted onto the skin as proposed in this disclosure. […] These findings assured me that topical BAPN is safe, effective and optimal therapeutic regimen to achieve significant interference with maturation of collagenous structure in tissues with an injury.

lysyl oxidase [4] = conditions: cited from earlier work
[5] = systemic, rats; cited from earlier work
scleroderma = conditions: cited from earlier work
lysyl oxidase [6] = conditions: single systemic moderate dose; cited from earlier work
collagen [7] = conditions: cited from earlier work
human collagen = conditions: in vivo; cited from earlier work
[8] = systemic, dogs; cited from earlier work
[9] = Recovery from urine after administration on skin through hydrophilic bag container (Example 2); type: in vivo, rats
Method: The experimental conditions were similar to those of Example 1 for Group 6. A 0.4 ml solution of 1.1M β-aminopropionitrile fumarate containing 200 mg/ml and 2 μCi of the same ^14 C labeled substance was placed into a hydrophilic bag membrane. This membrane contained 80% water. The container bag was placed onto the shaved skin area of 4 cm^2, covered with impermeable occlusive dressing represented by Blenderm surgical tape (3M, Minnesota). The rats were placed in metabolic cages and at defined time intervals, the urine was collected and the amount of radioactive drug determined.
Time indicates the urine sampling period. Recovery is given in percent of the dose administered into the hydrophilic bag.

lysyl oxidase [10] = test: Lysyl oxidase activity in granuloma tissue after topical application (Example 4); type: in vivo, rats, Sprague-Dawley
Method: Two groups of rats, four rats in each group, 250 g body weight, Sprague-Dawley males, were implanted subcutaneously with a polyvinylalcohol sponge (Ivalon, Unipoint Labs, New Jersey) in the dorsal region through an incision distal from the placement of the sponge.
A solution of 0.1 ml of β-aminopropionitrile (200 mg BAPN/ml) was applied every 12 hours onto the skin over the implanted sponge for a total of seven days. Then the rats were sacrificed, reactive granuloma tissue excised and used for the determination of the activity of lysyl oxidase.
There were four rats in each group.
Variability is given by standard deviation.
Significance of the results tested by Student's t-test.

[11] = Acute toxicity, LD50 (Example 3); set-up: species or system CD-1 mice; conditions: mouse, in vivo, 24-hour observation
Method: The determination of lethal dose, killing within a certain time after the administration of the tested drug 50% of the exposed animals, is a standard method of evaluation of the toxicity of a drug.
A total of 40 male CD-1 mice with a body weight of 20 g were injected either intraperitoneally with β-aminopropionitrile fumarate or the drug was applied in a solution onto the shaved dorsal aspect of the skin. Four dosage levels spaced in geometric progression were evaluated using five animals for each dose.

[12] = Work of flexion of tenolyzed flexor profundus tendon (Example 5); type: in vivo, White Leghorn chickens
Excerpt: will document the therapeutic effectiveness of direct infusions of β-aminopropionitrile fumarate solution into the dissected peritendinous adhesions in a rooster model of tendon injury.
Adult White Leghorn chickens were sedated with Pentothal, fixed to the operating table and given metacarpal local anesthesia with 1% xylocaine. Following surgical prep of the foot, a tourniquet was applied. Through a mid-lateral incision the sublimus tendon was removed from the long digit of both feet and a 4-0 braided stainless steel wire was passed through the entire length of the remaining profundus tendon to promote injury to the tendon by "scarification". The incision was closed with a continuous nylon suture, 4-0. Both feet were then incorporated in a plaster of Paris dressing with the feet in a functional position permitting the animals to walk while in the plaster.
Three weeks later the animals were prepared for surgery as above and the original incision was opened. A complete tenolysis was performed freeing the profundus tendon from surrounding fibrotic adhesions. […]
After 5 days of BAPN application the animals were sacrificed, the plaster dressings removed, and the legs amputated. […] The leg was then mounted in an Instron Tensiometer and measured traction was applied to the flexor profundus tendon at a rate of 2.5 cm/min while the flexion of the three digital joints was measured. […]

[13] = Percutaneous absorption of BAPN-fumarate, drug recovery in urine (Example 1); type: in vivo, rats, Sprague Dawley
Method: Adult rats, Sprague Dawley strain, were shaved on the dorsum. A 0.1 ml solution of 0.16M β-aminopropionitrile fumarate, containing 30 mg BAPN/ml of phosphate buffer (0.1M, pH 7.2) and for easy detection 2 μCi of ^14 C-β-aminopropionitrile fumarate was painted on the shaved skin area 2×2 cm of a rat. In another rat, the shaved skin was washed first with 2% Ivory soap, in the next group the skin area after painting was covered with occlusive bandage. In another group of rats (Table 1) the drug was administered onto the skin the drug in 60% dimethyl sulfoxide, a solvent known to increase percutaneous absorption. Finally, in the last group (Table 1), the basic solution was administered into a small container made of a hydrogel polymer. This hydrogel is characterized by containing 80% water. It makes good contact with the skin, allows penetration of the drug through the container wall, hydrates the skin under the occlusive dressing, thus enhancing the percutaneous transport.
^14 C--BAPNfumarate, 2 μCi in 30 mg BAPNfumarate/ml, 0.1 ml
*% recovered in 24 hours

collagen [14] = conditions: cited from earlier work; remark: listed apart in the source
monoamine oxidase (MAO) = conditions: cited from earlier work
lysyl oxidase [15] = conditions: isoniazid with BAPN; cited from earlier work

With `N#CCCN` [BAPN base] the “Skin penetration relative to BAPN fumarate” value [1] was “approximately five times faster”, the “Skin penetration relative to BAPN fumarate” value ([1]; listed as BAPN-base) was “higher penetration” and the Stability under storage [2] was “unstable under storage, undergoing hydrolysis forming ammonia and toxic acrylonitrile”.
In the case of `N#CCCN` [BAPN, β-aminopropionitrile], the “Topical cytotoxicity, morphological or ultrastructural” value [3] is given as “no morphological or ultrastructural evidence of topical cytotoxicity is found”, the “Concentration inhibiting lysyl oxidase” value (lysyl oxidase [4]) is given as 10^-7 M and the “Effectiveness as lathyrogenic agent on lysyl oxidase” value (lysyl oxidase [4]) is given as “the most effective”. For the same compound, the “Reversibility of lysyl oxidase inhibition” value (lysyl oxidase [4]) was “irreversible”, the Side effects [5] was “undesirable side effects” and the “Tendon gliding / joint stiffness” value [5] was “significantly improve the tendon gliding fraction or reduce stiffness”. The “Toxic side effects, short-term treatment” value (scleroderma; 2 g/day, short-term) was “no toxic side effects were noted”, the “Adverse reactions, longer courses” value (scleroderma; longer courses of treatment) was “prohibitive reactions, such as allergic skin rash and hemolytic anemia” and the “Time to recovery of lysyl oxidase activity in granuloma tissue” value (lysyl oxidase [6]) was 6 to 12 h. The “General toxicity at lathyrogenic dosages” value (collagen [7]; systemic, animals) was “the animals stop growing, lose body weight and lower their food intake”, the “Blocking the polymerization of collagen” value (collagen [7]; various animal models of fibrotic lesion) was “very effective” and the “Covalent bonding of human collagen / clinical benefit” value (human collagen) was “decreased covalent bonding of human collagen with significant clinical benefit was demonstrated”. For the same compound, the Hypersensitivity (human collagen) was “a significant number of the patients exhibited hypersensitivity to the agent”, the Side effects [8] was “undesirable side effects” and the “Tendon gliding / joint stiffness” value [8] was “significantly improve the tendon gliding fraction or reduce stiffness”. For the same compound, the “Recovery in Urine (In % of the Total Dose)” value ([9]; 4 hours) was 0.5%, the “Recovery in Urine (In % of the Total Dose)” value ([9]; 8 hours) was 1.01% and the “Recovery in Urine (In % of the Total Dose)” value ([9]; 12 hours) was 2.37%. For the same compound, the “Recovery in Urine (In % of the Total Dose)” value ([9]; 24 hours) was 5.40%, the “Recovery in Urine (In % of the Total Dose)” value ([9]; 72 hours) was 9.9% and the “Recovery in Urine (In % of the Total Dose)” value ([9]; 96 hours) was 15.2%. The “Recovery in Urine (In % of the Total Dose)” value ([9]; 120 hours) was 22.5% and the “Inhibition of lysyl oxidase in granuloma tissue” value (lysyl oxidase [10]; painted onto skin over implanted sponge) was “significant inhibition of the enzyme activity in the lesion; also recorded: effectively inhibits lysyl oxidase in granuloma tissue”.
With `N#CCCN` [BAPN-fumarate, β-aminopropionitrile fumarate] the LD50 at 24 h ([11]; ip, intraperitoneally) was 3000 mg/kg, the LD50 at 24 h ([11]; topical or ocular, percutaneously) was 23100 mg/kg and the Tendon gliding ([12]; topical infusion) was “glided more easily; much lower force was needed to flex the finger”. For the same compound, the “Work of Flexion (Mean)” value ([12]; topical infusion every 12 hours for 5 days, 300 mg/ml, SD 4.25, saline control 44.8 (SD 9.9), P < 0.01) was 13.10 gm/degree, the “Increase of delivery, Group 6 compared with Group 1” value ([13]; hydrophilic container with occlusive dressing vs phosphate buffer on intact skin) was roughly 40 times and the “Drug Recovery in the Urine, % Recovered in 6 hours” value ([13]; in phosphate buffer in 60% DMSO) was 11.66%. For the same compound, the “Drug Recovery in the Urine, % Recovered in 6 hours” value ([13]; in phosphate buffer in 60% DMSO, skin washed in 2% Ivory soap) was 10.10%, the “Drug Recovery in the Urine, % Recovered in 6 hours” value ([13]; in phosphate buffer on intact skin) was 0.97% and the “Drug Recovery in the Urine, % Recovered in 6 hours” value ([13]; in phosphate buffer, skin washed with 2% Ivory soap) was 2.17%. The “Drug Recovery in the Urine, % Recovered in 6 hours” value ([13]; in phosphate buffer, skin washed with 2% Ivory soap, occlusive bandage) was 10.56%, the “Drug Recovery in the Urine, % recovered in 24 hours” value ([13]; in phosphate buffer, skin washed with 2% Ivory soap, hydrophilic container, occlusive bandage, 24 hours) was 35.00% and the “Release / penetration over time” value ([9]; 120 hours of observation) was “continuous at the constant rate”. The “Lysyl Oxidase Activity in the granuloma tissue” value (lysyl oxidase [10]; topical, 0.1 ml of 200 mg/ml every 12 hours for seven days, control 36.2 ± 7.1, P < 0.001, standard deviation) was 1.8 ± 0.3 DPM/mg protein.
In the case of `CC(C)(S)[C@@H](N)C(=O)O` [D-penicillamine], the “Direct inhibition of lysyl oxidase” value (lysyl oxidase [4]) is listed as “direct inhibition of lysyl oxidase by D-penicillamine was demonstrated”, the “Changes in metal content in tissues and fluids” value (collagen [14]; after treatment) is listed as “Striking changes in the metal content in various tissues and fluids” and the Acute hypersensitivity reactions (collagen [14]; clinical studies, systemic) is listed as “high incidence of acute hypersensitivity reactions”. The “Decrease of structural stability of collagen” value (collagen [14]; systemic) was “well-documented”.
In the case of `N#CCN` [aminoacetonitrile], the “Effectiveness as lathyrogenic agent on lysyl oxidase” value (lysyl oxidase [4]) is given as “the most effective”.
In the case of `NNC(=O)c1ccncc1` [isoniazid], the “Monoamine oxidase (MAO) inhibition” value (monoamine oxidase (MAO)) is listed as “weak lysyl oxidase and MAO inhibitor”, the “Lathyritic effect of BAPN in combination” value (lysyl oxidase [15]) is listed as “potentiate the lathyritic effects of BAPN” and the Lysyl oxidase inhibition (lysyl oxidase [4]) is listed as “weak lysyl oxidase and MAO inhibitor”.
In the case of `C#CCN(C)Cc1ccccc1` [pargyline], the “Monoamine oxidase (MAO) inhibition” value (monoamine oxidase (MAO)) is listed as “monoamine oxidase (MAO) inhibitor”.
